# Data published in patent publication US10668034B2, “Pharmaceutical compositions and the treatment of overactive bladder” (Velicept Therapeutics, Inc., priority 2010, dated 2020).
# Read-outs that look alike come from different tables or passages of the source.
# Columns and labels:
# [1] = tested on: isolated rat urinary bladder strips; assay: EFS-induced contractions of rat isolated urinary bladder strips, beta-3 agonist with or without 10 nM antimuscarinic (Example 3); type: cell-based
# Protocol: In this study various combinations of β3-adrenoceptor agonists and antimuscarinics were tested in isolated rat urinary bladder strips. Urinary bladder smooth muscle strips were obtained from female rats (Sprague-Dawley strain, body weight 240-360 g). Two strips per bladder were prepared and connected to tension transducers in 5 ml organ baths containing Krebs-Henseleit solution (kept at 37° C., pH 7.4, gassed with 95% O2/5% CO2). Prazosin (1 μM) was added to the Krebs solution in order to block al-adrenoceptors. Strips were equilibrated for at least 60 min at 1.0 g resting tension, during which tissues were washed every 15 min. Then, each strip was exposed to 80 mM KCl to verify its viability. After another 45 min wash-out period, strips were subjected to EFS (electrical field stimulation parameters: constant current 800 mA; frequency of 15 Hz; square pulse of 0.1 ms, train of 4 s every 2 min). […] Cumulative concentrations of solabegron (10 nM-10 μM), mirabegron (10 nM-10 μM) and CL-316,243 (1 nM-10 μM) were then added in half-log increments. At the end of CRC's, 10 μM forskolin (FSK) was added to determine maximal relaxation (FIG. 1). […] Each CRC was fit using non-linear regression (GraphPad Prism® software) to obtain Emax and pIC50 (−log IC50) values. Mean CRCs for vehicle and treated strips were fit in parallel and statistically compared. The first fit was used to compare Emax values and when these values were not statistically different, a second fit was performed, sharing Emax, in order to obtain pIC50 values for each pair of curves. Differences were considered statistically significant when the null hypothesis could be rejected at a risk a of less than 0.05.
# [2] = tested on: urinary bladder strips from rats; assay: EFS-induced contractions of rat urinary bladder strips (Example 2); type: cell-based; details: for EC50: EFS-induced contractions, read-out: EC50 for inhibiting bladder contraction
# Protocol: In order to investigate a possible pharmacological synergy on the combination of the muscarinic and the beta receptor pathways, the combination of the muscarinic antagonist oxybutynin and the beta-3 adrenoceptor agonist CL-316,243 (a very selective and potent rodent β3-AR agonist) was tested on EFS (electrical field stimulation)-induced responses in urinary bladder strips from rats.
# Longitudinal strips of rat detrusor muscle were suspended in organ bath chambers containing oxygenated Krebs solution (pH 7.4, gassed with 95% O2 and 5% CO2 at 37° C.). Prazosin (1 μM) was added to the Krebs solution in order to block al-adrenoceptors. Bladder responses were measured using isometric transducers and recorded using a data acquisition system. Tissues were allowed to equilibrate under a resting tension of 1.0 g for 60 min. Following the equilibration period, strips were exposed to KCl (80 mM) to measure their viability. Tissues were washed and equilibrated for another 45 min period. Bladder strips were then subjected to EFS using the following parameters: maximal current 800 mA, frequency of 15 Hz, square pulse of 0.1 ms, trains of 4 s every 2 min. After approximately 15 min (when EFS contractions had stabilized), the selective β2-adrenoceptor antagonist ICI-118551 (30 nM) was incubated for 15 min. After stabilization of the contractile response, a concentration response curve was obtained for each bladder strip by adding CL-316,243 or oxybutynin (1 nM to 10 μM) (or corresponding vehicle) in log unit concentration increments.
# In a second series of experiments, a single concentration of oxybutynin at 10 nM (determined from the first series of experiments) was added to organ bath chambers followed by various doses of CL-316,243 to provide a concentration-response curve for CL-316,243.
# [3] = tested on: muscarinic receptor subtypes M1, M2, M3, M4 and M5; details: cited from earlier work
# [4] = Drug interaction study, post void residual (PVR) volume by bladder ultrasound; type: in vivo, human
# Protocol: A drug interaction study was conducted in healthy human volunteers, using repeat oral doses of solabegron and oxybutynin administered singly as well as in combination with each other, in order to assess the effects on pharmacokinetic and pharmacodynamic parameters, as measured by post void residual (PVR) volumes. PVR was measured in subjects treated with each agent alone as well as in combination at steady-state. The study was a two-cohort randomized, open label, repeat dose, 3-way crossover study in healthy adult subjects. Two marketed formulations of oxybutynin were used in the study: i) Ditropan IR®, which is immediate release (IR) oxybutynin; and ii) Ditropan XL® which is extended release (XL) oxybutynin. The total daily dose given was 20 mg. Solabegron was administered as tablets. […] Each study session was separated by a washout period of at least 5 days. Safety assessments included vital signs, ambulatory blood pressure monitoring (ABPM) physical examinations, clinical laboratory safety tests, 12-lead ECGs, PVR volume, to assess the potential for urinary retention, and adverse events. […] Bladder ultrasound scans to measure PVR volumes were conducted on Day-1 (one day prior to the dosing period) and Day 6 (sixth day of the dosing period) of each study session.
# [5] = in the presence of 10 nM oxybutynin
# [6] = in the presence of 10 nM tolterodine
# [7] = in the presence of oxybutynin (10 nM)
# [8] = in the presence of 10 nM solifenacin
Compound,"Emax of beta-3 agonist vs vehicle (in words) [1, 5]","IC50 of beta-3 agonist vs vehicle (in words) [1, 5]","Emax of beta-3 agonist vs vehicle (in words) [1, 6]","IC50 of beta-3 agonist vs vehicle (in words) [1, 6]",Discrimination between M3 and M1/M4 subtypes (in words) [3],Selectivity for M3 over the M2/M5 subtypes [3],also measured
"C[C@H](Cc1ccc2c(c1)OC(C(=O)[O-])(C(=O)[O-])O2)NC[C@H](O)c1cccc(Cl)c1.[Na+].[Na+] [CL-316,243]",significantly increased,significantly decreased,significantly increased,,,,"Maximal inhibition of EFS-induced contractions ([2]; CL-316,243 alone): 65%; EC50 ([2]; CL-316,243 alone): 7.2 nM; Shift to the left of concentration-response curve ([2]; in the presence of a minimally effective dose of oxybutynin (10 nM)): ~3.5 fold; Maximal inhibition of EFS-induced contractions [2, 7]: 80%; EC50 [2, 7]: 2.1 nM"
Nc1nc(CC(=O)Nc2ccc(CCNC[C@H](O)c3ccccc3)cc2)cs1 [mirabegron],,significantly lower,appeared to be increased,significantly lower,,,"IC50 of beta-3 agonist vs vehicle (in words) [1, 8]: significantly lower"
"CCN(CC)CC#CCOC(=O)C(O)(c1ccccc1)C1CCCCC1 (stereo not shown) [oxybutynin, 4-diethylaminobut-2-ynyl 2-cyclohexyl-2-hydroxy-2-phenyl-ethanoate]",,,,,do not distinguish,~10 fold,"Effect of oxybutynin alone on EFS-induced responses (in words) ([2]; oxybutynin at a concentration of 10 nM, first series of experiments): minimal contraction"
"O=C(O)c1cccc(-c2cccc(NCCNC[C@H](O)c3cccc(Cl)c3)c2)c1 [solabegron, 3′-[(2-{[(2R)-2-(3-chlorophenyl)-2-hydroxyethyl]amino}ethyl)amino]biphenyl-3-carboxylic acid]",significantly increased,significantly lower,significantly increased,significantly lower,,,"Emax of beta-3 agonist vs vehicle (in words) [1, 8]: significantly increased; Mean increase from baseline in PVR volume ([4]; healthy human subjects, repeat oral doses for 5 days, Day 6 vs Day-1, solabegron 200 mg BID, oxybutynin IR 5 mg QID, oxybutynin XL 10 mg BID): 4.4 mL; Changes in PVR volume (in words) ([4]; healthy subjects): minimal changes"
O=C(O[C@H]1CN2CCC1CC2)N1CCc2ccccc2[C@@H]1c1ccccc1 [solifenacin],,,,,do not distinguish,~10 fold,
Cc1ccc(O)c([C@H](CCN(C(C)C)C(C)C)c2ccccc2)c1 [tolterodine],,,,,,,Discrimination between the five muscarinic subtypes (in words) [3]: does not discriminate between the five subtypes
